Activity calls are given as the source filed them.
Experiments:
Candida albicans [1] = test: growth inhibition of resistant C. albicans, dose response, CaCi-8 strain, fluconazole, dry powder, set 4 (AID 488950); assay type: functional, organism-based
Candida albicans [2] = test: fluconazole resistance reversal in C. albicans, dose response, CaCi-2 strain, Alamar Blue, dry powder, set 4 (AID 488943); assay type: functional, organism-based
Candida albicans [3] = test: growth inhibition of resistant C. albicans, dose response, CaCi-8, fluconazole, Alamar Blue, dry powder (AID 488807); assay type: functional, organism-based
[4] = target: T1, Luciferin 4-monooxygenase (Photinus pyralis, UniProt P08659); test: Counter Screen for Luciferase-based Assay Positives. [Related pubchem assays: 620, 618, 411 ]
HT-1080 = test: cytotoxicity in HT1080 fibrosarcoma cells, cell-based, fluorescence readout (AID 620); assay type: functional; details: Homo sapiens
Jurkat = test: antigen receptor-induced NF-kB inhibitors, dose response, Jurkat, luciferase reporter, luminescence, B- and T-cell (AID 489004); assay type: functional, cell-based; details: Homo sapiens;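 note: NF-kB luciferase reporter Jurkat cells stimulated with PMA plus ionomycin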
[5] = cytotoxicity in HEK-293T NF-kB-Luc cells, dose response, cytotoxicity control for B/T-cell NF-kB inhibitor project, cell-based, uHTS hits (AID 489019); assay type: functional;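 note: IC50 reflects cytotoxicity as loss of cell viability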
[6] = target: T2, Microphthalmia-associated transcription factor (Homo sapiens, UniProt O75030); test: TRPM1 promoter luciferase signal decrease, dose response, MITF inhibitor project, cell-based, SK-MEL-5, cherry-picked, set 3 (AID 493073); assay type: functional
T2 sequence (O75030 whole entry): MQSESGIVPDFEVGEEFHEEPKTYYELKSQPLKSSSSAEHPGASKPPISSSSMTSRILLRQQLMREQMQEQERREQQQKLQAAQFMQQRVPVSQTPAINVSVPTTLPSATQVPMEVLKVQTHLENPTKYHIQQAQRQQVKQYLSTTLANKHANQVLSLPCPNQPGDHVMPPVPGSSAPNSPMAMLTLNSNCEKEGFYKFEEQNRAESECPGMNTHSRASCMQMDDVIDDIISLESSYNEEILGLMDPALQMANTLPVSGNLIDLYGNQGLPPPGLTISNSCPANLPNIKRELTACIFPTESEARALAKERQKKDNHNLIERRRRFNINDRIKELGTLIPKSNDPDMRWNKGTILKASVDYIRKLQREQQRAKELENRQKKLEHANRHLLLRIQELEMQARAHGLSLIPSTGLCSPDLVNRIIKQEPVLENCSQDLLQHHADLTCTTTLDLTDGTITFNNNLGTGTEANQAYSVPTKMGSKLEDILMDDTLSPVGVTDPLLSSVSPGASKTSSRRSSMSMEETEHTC

A-375 [7] = test: MITF: Counter assay: A375 proliferation Measured in Cell-Based System Using Plate Reader - 2084-03_Inhibitor_Dose_DryPowder_Activity. [Related pubchem assays (depositor defined):AID488944]; assay type: functional; details: Homo sapiens
A-375 [8] = test: A375 melanoma cell viability reduction, dose response, counter-screen for MITF modulator project, cherry-pick samples, set 2 (AID 540335); assay type: functional, cell-based; details: Homo sapiens
[9] = inhibitors of HIV Env-driven cell fusion, dose response, cherry-pick (AID 652057); assay type: functional, cell-based
[10] = ZM109 Env clade C HIV-1 fusion inhibitors, dose response, HeLa effector, CEM target cells, luciferase, cherry-pick (AID 652058); assay type: functional, cell-based
[11] = off-target signal loss in HeLa-CEM21 co-culture – HeLa F-luc CTL cells, cherry-picked, counter-screen for HIV-1 Env fusion inhibitor project, dose response (AID 652040); assay type: functional, cell-based;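 note: potency for signal decrease marking cytotoxic or nonspecific inhibition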
[12] = inhibitors of clade B AD8 Env fusion, dose response, cell-based, cherry-pick (AID 652062); assay type: functional;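 note: luciferase signal from cell-cell fusion driven by HIV-1 clade B AD8 Env; potency is for inhibitors of fusion seen as a drop in luminescence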
Beta-galactosidase = Beta-galactosidase (Escherichia coli, UniProt Q8VNN2); test: PubChem AID 485352; assay type: functional
[13] = target: Type-1 angiotensin II receptor (Homo sapiens, UniProt P30556); test: AT1 receptor antagonists, dose response, selectivity assay for APJ receptor antagonist project, cell-based, uHTS hits (AID 463214); assay type: functional;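 note: antagonist potency against angiotensin II stimulated AT1 response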
[14] = Luminescence Cell-Based Dose Retest to Confirm Inhibitors of Cancer Stem Cells. [Related pubchem assays (depositor defined):AID2717, AID2721]; assay type: functional; details: Homo sapiens
[15] = cytotoxicity in HMLE control line with eGFP shRNA, dose response, counter-screen for HMLE_sh_ECad selective toxicity project, cell-based, HMLE_sh_eGFP, luminescence (AID 463074); assay type: functional, Homo sapiens;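 note: HMLE human mammary epithelial cells expressing control shRNA against eGFP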
[16] = target: T3, Short transient receptor potential channel 4 (Mus musculus, UniProt Q9QUQ5); test: TRPC4 inhibitor concentration-response, dose response, cell-based, HEK293 TRPC4/mu-opioid, DAMGO stimulus, Fluo-4 (AID 492994); assay type: functional
T3 sequence (Q9QUQ5 whole entry): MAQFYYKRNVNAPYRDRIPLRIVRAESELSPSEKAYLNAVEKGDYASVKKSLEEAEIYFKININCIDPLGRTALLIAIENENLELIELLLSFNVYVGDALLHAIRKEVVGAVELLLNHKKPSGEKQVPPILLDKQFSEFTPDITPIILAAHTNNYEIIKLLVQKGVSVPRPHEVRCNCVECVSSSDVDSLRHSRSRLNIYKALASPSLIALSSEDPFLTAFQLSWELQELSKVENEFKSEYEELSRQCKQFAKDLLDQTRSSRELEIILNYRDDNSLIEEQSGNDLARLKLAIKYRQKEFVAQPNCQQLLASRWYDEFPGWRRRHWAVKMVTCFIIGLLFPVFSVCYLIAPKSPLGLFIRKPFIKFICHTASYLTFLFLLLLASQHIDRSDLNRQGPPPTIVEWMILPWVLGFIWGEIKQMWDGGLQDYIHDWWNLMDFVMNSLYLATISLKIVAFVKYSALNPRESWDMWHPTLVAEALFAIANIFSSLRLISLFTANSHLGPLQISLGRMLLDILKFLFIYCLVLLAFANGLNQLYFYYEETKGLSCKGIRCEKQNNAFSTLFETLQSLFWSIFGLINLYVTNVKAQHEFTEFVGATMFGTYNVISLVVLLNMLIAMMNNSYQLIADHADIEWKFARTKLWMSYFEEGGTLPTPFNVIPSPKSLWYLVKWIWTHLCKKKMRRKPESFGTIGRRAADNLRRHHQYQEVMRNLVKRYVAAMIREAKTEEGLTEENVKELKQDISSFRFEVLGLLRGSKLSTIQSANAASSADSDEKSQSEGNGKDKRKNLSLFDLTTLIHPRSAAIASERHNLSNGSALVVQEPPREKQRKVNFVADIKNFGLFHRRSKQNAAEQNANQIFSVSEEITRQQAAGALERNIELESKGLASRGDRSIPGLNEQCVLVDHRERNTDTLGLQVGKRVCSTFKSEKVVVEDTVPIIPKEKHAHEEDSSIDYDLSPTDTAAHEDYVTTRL

[17] = test system: Streptococcus sp. 'group A'; test: growth inhibition of control SK(-) GAS strain, dose response, counter-screen for streptokinase expression inhibitor project, luminescence, kanamycin, BacTiterGlo, confirmation (AID 1900); assay type: functional, organism-based
Streptokinase A = target: T4, Streptokinase A (Streptococcus pyogenes serotype M1, UniProt P10520); test: S. pyogenes streptokinase expression inhibitors, potency, dose response, plasminogen activation absorbance, OD405 (AID 1914); assay type: functional, Streptococcus pyogenes M1 GAS;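 note: secreted streptokinase activity via plasminogen activation per viability signal from cell pellet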
T4 sequence (P10520 whole entry): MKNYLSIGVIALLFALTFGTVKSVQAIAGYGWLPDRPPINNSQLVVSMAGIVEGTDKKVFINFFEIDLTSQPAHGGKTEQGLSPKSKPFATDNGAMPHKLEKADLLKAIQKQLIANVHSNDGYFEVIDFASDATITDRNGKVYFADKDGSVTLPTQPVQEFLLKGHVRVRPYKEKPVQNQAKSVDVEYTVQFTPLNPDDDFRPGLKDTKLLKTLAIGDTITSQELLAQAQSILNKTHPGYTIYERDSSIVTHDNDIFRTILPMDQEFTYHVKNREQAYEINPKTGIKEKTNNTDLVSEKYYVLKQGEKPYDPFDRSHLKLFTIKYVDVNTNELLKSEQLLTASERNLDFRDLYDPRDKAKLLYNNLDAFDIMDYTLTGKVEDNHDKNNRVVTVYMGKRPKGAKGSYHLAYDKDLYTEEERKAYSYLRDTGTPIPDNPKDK

Streptococcus = test: Group A Streptococcus viability loss, dose response, counter-screen for streptokinase expression inhibitor project, luminescence, BacTiterGlo (AID 1915); assay type: functional, organism-based;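 note: potency for reduction of bacterial viability or growth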
Cysteine protease ATG4B = Cysteine protease ATG4B (Homo sapiens, UniProt Q9Y4P1); assay type: functional;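 note: Fluorescence-based dose-response confirmation assay measuring inhibition of ATG4B activity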
Phospholipase A2 = Phospholipase A2 (Homo sapiens, UniProt P04054); assay type: functional;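 note: confirmatory dose-response counterscreen on phospholipase A2, testing hits that came from an ultra-high-throughput screen for ATG4B inhibitors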
Cytochrome P450 3A4 = Cytochrome P450 3A4 (Homo sapiens, UniProt P08684);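 note: CYP3A4 tested as one member of a cytochrome P450 panel screen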
HEK293 = test: cells; assay type: functional, cell-based; details: Homo sapiens
[18] = target: Nuclear receptor subfamily 0 group B member 1 (Homo sapiens, UniProt P51843); test: Luminescence-based cell-based high throughput dose response assay for inhibitors of the orphan nuclear receptor subfamily 0, group B, member 1 (DAX1; NR0B1). [Related pubchem assays (depositor defined):AID504766, AID504790]; assay type: functional
[19] = target: T5, DNA repair and recombination protein RAD54-like (Homo sapiens, UniProt Q92698); test: inhibitors of human RAD54 branch migration, confirmation, biochemical, fluorescence, cherry-picked samples, dose series (AID 651657); assay type: functional
T5 sequence (Q92698 whole entry): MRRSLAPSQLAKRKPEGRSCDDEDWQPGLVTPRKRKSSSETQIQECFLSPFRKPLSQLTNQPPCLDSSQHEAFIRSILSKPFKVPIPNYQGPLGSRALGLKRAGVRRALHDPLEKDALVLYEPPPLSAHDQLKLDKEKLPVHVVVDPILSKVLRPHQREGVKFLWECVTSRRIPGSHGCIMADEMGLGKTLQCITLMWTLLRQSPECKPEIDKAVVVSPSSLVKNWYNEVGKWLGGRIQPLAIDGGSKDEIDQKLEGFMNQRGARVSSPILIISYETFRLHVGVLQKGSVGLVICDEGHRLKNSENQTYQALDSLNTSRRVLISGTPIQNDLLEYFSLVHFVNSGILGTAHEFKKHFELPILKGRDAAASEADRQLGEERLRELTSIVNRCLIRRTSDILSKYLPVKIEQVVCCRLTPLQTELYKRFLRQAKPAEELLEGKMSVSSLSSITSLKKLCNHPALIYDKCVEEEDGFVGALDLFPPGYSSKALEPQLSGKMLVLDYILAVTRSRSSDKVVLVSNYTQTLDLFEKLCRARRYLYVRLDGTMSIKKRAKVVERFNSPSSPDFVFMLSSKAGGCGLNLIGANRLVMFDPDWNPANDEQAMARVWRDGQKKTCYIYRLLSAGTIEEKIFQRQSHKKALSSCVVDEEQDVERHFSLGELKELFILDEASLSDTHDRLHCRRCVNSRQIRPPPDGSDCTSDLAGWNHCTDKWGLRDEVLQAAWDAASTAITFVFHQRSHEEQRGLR

[20] = target: T1, Luciferin 4-monooxygenase; test: firefly luciferase enzyme inhibitors, dose response, biochemical, luminescence (AID 1891)
[21] = Luminescence Cell-Based Dose Confirmation HTS to Identify Inhibitors of Platelet Dense Granule Release. [Related pubchem assays: 1663 (Primary HTS), 1678 (Summary of Project)]; assay type: functional
HeLa = test: HeLa cell cytotoxicity, dose response, cytotoxicity control for MITF activator project, CellTiter-Glo luminescence, cherry-pick samples (AID 540259); assay type: functional, cell-based; details: Homo sapiens
Hexokinase-1 = Hexokinase-1 (Homo sapiens, UniProt P19367); test: SAR analysis of small molecule inhibitors of hexokinase domain containing I (HKDC1) in the hexokinase 1 selectivity assay. [Related pubchem assays (depositor defined):AID493160, AID493190]; assay type: functional
Hexokinase HKDC1 = Hexokinase HKDC1 (Homo sapiens, UniProt Q2TB90); test: SAR analysis of small molecule inhibitors of hexokinase domain containing I (HKDC1). [Related pubchem assays (depositor defined):AID493160, AID493190]; assay type: functional
Hexokinase HKDC1, sequence (Q2TB90 whole entry, the tested form may be a part): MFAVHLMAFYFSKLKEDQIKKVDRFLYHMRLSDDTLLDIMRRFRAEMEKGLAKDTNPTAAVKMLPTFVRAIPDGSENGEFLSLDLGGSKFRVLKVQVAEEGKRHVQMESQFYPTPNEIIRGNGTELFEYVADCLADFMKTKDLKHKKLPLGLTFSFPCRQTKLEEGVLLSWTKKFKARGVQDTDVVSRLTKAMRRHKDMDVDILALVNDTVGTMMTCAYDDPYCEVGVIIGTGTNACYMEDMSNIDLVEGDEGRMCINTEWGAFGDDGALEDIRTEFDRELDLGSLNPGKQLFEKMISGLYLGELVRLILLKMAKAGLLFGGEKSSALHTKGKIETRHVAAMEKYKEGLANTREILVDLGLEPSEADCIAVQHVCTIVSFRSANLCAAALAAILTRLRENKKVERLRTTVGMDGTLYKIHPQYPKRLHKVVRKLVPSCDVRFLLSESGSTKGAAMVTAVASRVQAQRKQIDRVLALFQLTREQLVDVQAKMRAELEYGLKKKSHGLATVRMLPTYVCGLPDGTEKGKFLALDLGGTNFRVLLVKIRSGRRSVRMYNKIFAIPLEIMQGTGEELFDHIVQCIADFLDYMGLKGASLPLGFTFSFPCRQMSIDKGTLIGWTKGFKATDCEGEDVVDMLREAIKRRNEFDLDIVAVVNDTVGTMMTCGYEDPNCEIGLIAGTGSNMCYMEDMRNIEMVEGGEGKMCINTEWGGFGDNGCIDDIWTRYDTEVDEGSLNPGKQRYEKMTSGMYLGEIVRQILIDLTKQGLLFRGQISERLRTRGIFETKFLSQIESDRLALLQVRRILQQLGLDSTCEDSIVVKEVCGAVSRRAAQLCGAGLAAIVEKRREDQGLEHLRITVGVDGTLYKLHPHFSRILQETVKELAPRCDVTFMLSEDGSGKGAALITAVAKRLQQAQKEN

T1 sequence (P08659 whole entry): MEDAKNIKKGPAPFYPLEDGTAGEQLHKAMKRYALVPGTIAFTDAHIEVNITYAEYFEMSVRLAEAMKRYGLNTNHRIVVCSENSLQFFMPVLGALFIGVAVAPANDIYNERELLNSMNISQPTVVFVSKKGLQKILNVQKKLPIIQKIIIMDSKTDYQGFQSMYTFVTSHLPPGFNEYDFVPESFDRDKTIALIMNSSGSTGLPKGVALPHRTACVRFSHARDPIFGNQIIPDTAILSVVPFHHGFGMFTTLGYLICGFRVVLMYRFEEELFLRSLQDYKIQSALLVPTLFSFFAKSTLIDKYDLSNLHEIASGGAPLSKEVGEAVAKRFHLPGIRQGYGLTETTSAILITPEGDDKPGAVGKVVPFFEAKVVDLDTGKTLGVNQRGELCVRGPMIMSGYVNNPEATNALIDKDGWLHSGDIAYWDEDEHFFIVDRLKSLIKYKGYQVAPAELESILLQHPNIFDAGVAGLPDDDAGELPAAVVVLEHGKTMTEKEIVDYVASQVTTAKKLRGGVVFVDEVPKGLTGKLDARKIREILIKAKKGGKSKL
Hexokinase-1, sequence (P19367 whole entry, the tested form may be a part): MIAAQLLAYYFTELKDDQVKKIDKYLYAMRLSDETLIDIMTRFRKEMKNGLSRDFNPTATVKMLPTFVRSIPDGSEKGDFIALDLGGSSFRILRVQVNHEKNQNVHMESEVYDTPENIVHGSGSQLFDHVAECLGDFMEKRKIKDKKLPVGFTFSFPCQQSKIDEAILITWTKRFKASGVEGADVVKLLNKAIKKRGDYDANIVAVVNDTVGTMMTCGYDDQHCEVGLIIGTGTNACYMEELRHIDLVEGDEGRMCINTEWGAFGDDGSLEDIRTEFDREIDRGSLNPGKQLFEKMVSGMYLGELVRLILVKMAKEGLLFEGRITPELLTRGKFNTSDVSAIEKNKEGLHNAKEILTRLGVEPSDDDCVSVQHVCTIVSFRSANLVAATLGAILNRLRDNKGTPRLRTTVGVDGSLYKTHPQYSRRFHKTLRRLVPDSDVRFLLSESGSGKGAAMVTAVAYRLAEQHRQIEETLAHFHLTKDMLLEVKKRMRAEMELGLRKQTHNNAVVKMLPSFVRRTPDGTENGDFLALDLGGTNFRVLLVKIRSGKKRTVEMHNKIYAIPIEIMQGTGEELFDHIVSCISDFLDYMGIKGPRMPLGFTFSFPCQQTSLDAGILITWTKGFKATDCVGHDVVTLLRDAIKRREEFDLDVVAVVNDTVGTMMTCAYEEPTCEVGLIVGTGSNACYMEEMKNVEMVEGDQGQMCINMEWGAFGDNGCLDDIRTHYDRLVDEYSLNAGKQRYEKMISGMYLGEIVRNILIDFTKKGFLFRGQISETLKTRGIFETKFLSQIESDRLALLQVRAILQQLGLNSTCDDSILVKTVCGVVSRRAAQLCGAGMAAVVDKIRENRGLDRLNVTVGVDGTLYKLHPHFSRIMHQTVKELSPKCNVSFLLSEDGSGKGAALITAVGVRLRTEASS
Phospholipase A2, sequence (P04054 whole entry): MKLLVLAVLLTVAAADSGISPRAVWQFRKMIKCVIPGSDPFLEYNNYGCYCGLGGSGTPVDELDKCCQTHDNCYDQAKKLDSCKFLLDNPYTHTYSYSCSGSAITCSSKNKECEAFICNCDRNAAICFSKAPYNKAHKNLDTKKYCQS
Nuclear receptor subfamily 0 group B member 1, sequence (P51843 whole entry): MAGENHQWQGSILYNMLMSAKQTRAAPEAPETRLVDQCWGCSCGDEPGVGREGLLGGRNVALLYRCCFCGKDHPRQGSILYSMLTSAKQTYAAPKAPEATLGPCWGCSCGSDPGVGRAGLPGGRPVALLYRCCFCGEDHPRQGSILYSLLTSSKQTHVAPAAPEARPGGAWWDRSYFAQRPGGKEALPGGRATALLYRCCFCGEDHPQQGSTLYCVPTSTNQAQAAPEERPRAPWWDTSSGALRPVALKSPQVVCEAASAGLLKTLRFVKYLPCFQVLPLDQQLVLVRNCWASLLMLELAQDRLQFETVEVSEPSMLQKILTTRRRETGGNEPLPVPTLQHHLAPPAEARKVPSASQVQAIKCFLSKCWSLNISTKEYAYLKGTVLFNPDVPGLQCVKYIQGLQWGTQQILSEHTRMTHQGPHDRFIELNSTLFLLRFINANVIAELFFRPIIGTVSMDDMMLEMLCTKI
Beta-galactosidase, sequence (Q8VNN2 whole entry): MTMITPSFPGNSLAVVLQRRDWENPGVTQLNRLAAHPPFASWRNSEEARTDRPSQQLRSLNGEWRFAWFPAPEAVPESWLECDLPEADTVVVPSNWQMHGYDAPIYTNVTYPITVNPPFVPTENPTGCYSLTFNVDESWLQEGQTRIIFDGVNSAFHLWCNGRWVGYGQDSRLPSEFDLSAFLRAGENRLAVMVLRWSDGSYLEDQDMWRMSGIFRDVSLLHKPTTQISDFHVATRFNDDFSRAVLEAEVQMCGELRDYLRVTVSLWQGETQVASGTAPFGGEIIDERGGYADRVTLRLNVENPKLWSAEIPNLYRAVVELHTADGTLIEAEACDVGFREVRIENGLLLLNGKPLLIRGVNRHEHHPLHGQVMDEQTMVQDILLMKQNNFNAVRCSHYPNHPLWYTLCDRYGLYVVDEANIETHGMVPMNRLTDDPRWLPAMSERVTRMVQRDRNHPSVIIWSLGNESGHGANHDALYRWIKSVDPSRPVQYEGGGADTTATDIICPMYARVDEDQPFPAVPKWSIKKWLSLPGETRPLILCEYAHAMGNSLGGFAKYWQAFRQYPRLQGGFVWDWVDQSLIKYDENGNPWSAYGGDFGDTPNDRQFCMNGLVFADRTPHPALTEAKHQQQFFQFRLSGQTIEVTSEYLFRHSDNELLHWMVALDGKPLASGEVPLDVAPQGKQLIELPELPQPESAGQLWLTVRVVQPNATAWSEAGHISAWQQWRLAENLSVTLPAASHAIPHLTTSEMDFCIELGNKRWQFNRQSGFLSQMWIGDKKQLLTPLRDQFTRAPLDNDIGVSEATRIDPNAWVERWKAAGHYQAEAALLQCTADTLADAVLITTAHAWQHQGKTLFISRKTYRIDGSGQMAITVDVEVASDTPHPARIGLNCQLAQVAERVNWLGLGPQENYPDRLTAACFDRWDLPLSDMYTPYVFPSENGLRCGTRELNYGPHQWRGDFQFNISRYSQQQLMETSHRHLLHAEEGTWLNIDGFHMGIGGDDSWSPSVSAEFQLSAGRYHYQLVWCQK
Type-1 angiotensin II receptor, sequence (P30556 whole entry): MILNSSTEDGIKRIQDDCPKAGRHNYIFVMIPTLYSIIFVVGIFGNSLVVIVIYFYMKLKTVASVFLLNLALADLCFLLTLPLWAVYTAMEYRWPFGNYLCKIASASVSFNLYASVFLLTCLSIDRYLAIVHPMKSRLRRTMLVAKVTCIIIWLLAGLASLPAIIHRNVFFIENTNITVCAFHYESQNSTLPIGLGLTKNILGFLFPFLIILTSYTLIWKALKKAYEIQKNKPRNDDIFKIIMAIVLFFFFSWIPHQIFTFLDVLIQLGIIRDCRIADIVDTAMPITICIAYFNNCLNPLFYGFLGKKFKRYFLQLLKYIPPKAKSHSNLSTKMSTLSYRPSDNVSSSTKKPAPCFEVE
Cytochrome P450 3A4, sequence (P08684 whole entry): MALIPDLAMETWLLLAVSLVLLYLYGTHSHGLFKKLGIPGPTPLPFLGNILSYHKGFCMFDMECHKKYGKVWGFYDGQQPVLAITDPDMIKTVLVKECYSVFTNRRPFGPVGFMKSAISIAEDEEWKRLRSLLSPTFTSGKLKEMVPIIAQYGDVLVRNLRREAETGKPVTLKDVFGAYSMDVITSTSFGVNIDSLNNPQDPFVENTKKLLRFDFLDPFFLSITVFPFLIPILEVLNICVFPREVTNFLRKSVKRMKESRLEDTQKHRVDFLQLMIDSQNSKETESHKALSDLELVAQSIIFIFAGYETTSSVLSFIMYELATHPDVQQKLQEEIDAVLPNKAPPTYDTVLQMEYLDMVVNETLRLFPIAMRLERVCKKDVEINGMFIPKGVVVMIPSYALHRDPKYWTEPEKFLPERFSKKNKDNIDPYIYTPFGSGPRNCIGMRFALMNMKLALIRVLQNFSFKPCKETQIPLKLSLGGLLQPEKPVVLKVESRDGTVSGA

## O=C(c1ccc(Cl)cc1)N1CCN(c2ccc(Cl)cc2)CC1
Candida albicans [1]
  AC50: 5.25 µM (active)
Candida albicans [2]
  AC50: 4.76 µM (active)
Candida albicans [3]
  AC50: 0.375 µM (active)

## CC(C)(C)c1ccc(C(=O)N2CCCCCC2=O)cc1
[4]
  EC50: 1.5 µM (active)
HT-1080
  EC50: > 50 µM (not active)
Jurkat
  IC50: 0.38 µM (active)
[5]
  IC50: > 80 µM (inactive)
[6]
  AC50: 1.12 µM (active)
A-375 [7]
  AC50: > 35 µM (active)
A-375 [8]
  AC50: > 35 µM (active)
[9]
  AC50: 2.77 µM (active)
[10]
  AC50: 0.611 µM (active)
[11]
  AC50: 1.73 µM (active)
[12]
  AC50: 4.27 µM (active)

## CN(C)c1ccc(/C=C2\N=C(c3ccc(Cl)c([N+](=O)[O-])c3)NC2=O)cc1
Beta-galactosidase
  EC50: > 40 µM (inactive)
[13]
  IC50: > 40 µM (not active)

## CN(c1ccccc1)c1ccc(/C=C(\C#N)c2nnc3n2CCCCC3)cc1[N+](=O)[O-]
[14]
  AC50: 0.597 µM (active)
[15]
  AC50: 24.3 µM (active)

## COCCN(C)c1cc(C)c2ccccc2n1
[16]
  IC50: 20.8 µM (active)

## CSc1nnc2nc3c(c(O)n12)C1(CCCCC1)Cc1ccccc1-3
[17]
  EC50: 7.86 µM (active)
Streptokinase A
  EC50: > 150 µM (not active)
Streptococcus
  EC50: 123 µM (active)
Cysteine protease ATG4B
  IC50: 7.09 µM (active)
Phospholipase A2
  IC50: 5.6 µM (active)

## O=C(c1cc(C(F)(F)F)cc(C(F)(F)F)c1)N1CCC2(CC1)CN(c1ccccc1)C2
Cytochrome P450 3A4
  AC50: inconclusive

## CCN(CC)CCCNC(=O)c1cc2c(=O)n(C)c3ccccc3c2n1C
HEK293
  IC50: > 67.5 µM (inactive)
[18]
  IC50: > 67.5 µM (inactive)
[19]
  AC50: 26.9 µM (active)

## COc1ccc(C(=O)Nc2cc(OC)nc(OC)n2)cc1
[20]
  EC50: 16.3 µM (active)
[21]
  EC50: 8.79 µM (active)
HeLa
  AC50: 178 µM (active)

## N#Cc1ccc(CSc2nnc(NC(=O)c3ccncc3)s2)cc1
Hexokinase-1
  IC50: > 80 µM (inactive)
Hexokinase HKDC1
  IC50: > 80 µM (inactive)

From ChEMBL document CHEMBL1201862, “PubChem BioAssay data set” (2004)
